Columns and labels:
[1] = test system: cERE probe; assay: EMSA (gel mobility shift), ER binding to cERE probe; details: CHO-S extracts
Protocol: (§1) CHO—S cells (Life-Technologies; Grand Island, N.Y.) were transfected using Lipofectamine 2000 (Life-Technologies). Transfection was performed according to the manufacturer's instructions, except cells were grown in 6-well plates coated with 1 ml of 0.1 mg/mL polylysine for 24 hours at 37° C. prior to transfection. One μg of CMV-hERα and 3 μg of pTZ18U carrier DNA were used for each well; DNA:Lipofectamine 2000 was 1:3. 17β-estradiol was added to a final concentration of 10 nM 1 hour before harvest. Whole cell extracts were prepared as described (Zhang et al., 1996) with a modified extraction buffer (50 m-M Tris-HCl, pH 7.5, 1.5 mM EDTA, 10 mM Na2MoO4, 0.5 M NaCl, 10% glycerol, 0.5 mM β-mercaptoethanol, 50 μg/ml leupeptin, 1 μg/ml pepstatin and 5 μg/ml aprotinin).
(§2) Gel mobility shift assays were performed essentially as described [Zhang, 1999 #38]. Each 20 μl reaction contained 50 mM KCl, 15 mM Tris-HCl (pH 7.9), 4 mM dithiothreitol, 0.2 mM EDTA, 3 μg of poly(dIdC) and 10% glycerol; bovine serum albumin (BSA) was added to each sample for a total of 10 μg of protein. Free probe and protein-DNA complexes were quantitated using a phosphor imager and ImageQuant 5.0 (Molecular Dynamics, Inc., Sunnyvale, Calif.). The sequence of one DNA strand of each of the three probes (SEQ ID NOS:61–63) used for the gel mobility shift assays are presented in Table 31. The ERE or PAL sequences are underlined.
To compare binding of wild type hERα and the ER mutants to the EREs, protein titrations were performed. Increasing amounts of extracts containing equivalent levels of wild-type ER or ER mutants were incubated with the cERE. The ER:ERE complexes were then analyzed by EMSA. […] The mutants required 1.5–2.4-fold more extract to bind 50% of the cERE probe than wild-type ER. […] Even at the highest level of extract (8 μg), wild-type ER shifted only ˜15% of the pS2 probe.
FIG. 1 (Legend) A. Panel (i), Western blots of normalized whole cell extracts of wild type hERα and mutants from transfected CHO-S cells. Lane 1–13: mutants 4, 2, 57.1, 50.1, 15.3, wild type ER, 7.2, 6.2, 4.3, 3.1, 2.1, wild type, and 3M, respectively. Panel (ii), The three ERE sequences used in these studies. The nucleotides that differ from those in the consensus ERE (cERE) are underlined. Nucleotides in lower case lettering are less well conserved or not conserved in EREs. […] The data were calculated by PhosphorImager analysis. (B) The labeled cERE probe was incubated with 0.5, 1.0, 2.0 and 4.0 μg of whole cell extracts of wild type hERα, or extracts containing the mutant ERs normalized to contain the same amount of ER as the wild-type ER extract at each point. (C) Gel shift assays using the labeled pS2 ERE probes and increasing amounts (1.0, 2.0, 4.0 and 8.0 μg) of the whole cell extracts containing wild-type ER and each of the ER mutants. (D) Gel shift assays using the labeled pS2 palindrome ERE probe. The ER extract contained 2.0, 4.0 and 8.0 μg of whole cell extract (panel (i)), and 15 μg (panel (ii)). Lanes 1–7 (panel (ii)) represent wild type hERα, and mutants 3M, 3.1, 4.3, 6.2, 2 and 4, respectively. D (iii) contains a graph of the percentage of the labeled pS2 PAL probe shifted calculated by PhosphorImager analysis of the data in D(i) and D(ii).

[2] = target: T1, wild type hERα (Homo sapiens, UniProt P03372, G400V); assay: Ligand-dependent luciferase reporter transactivation in transfected HepG2 cells; details: for MOX-dependent increase in luciferase activity: ATL2/cERE-LUC, 10 nM MOX
T1 sequence (P03372 1-595 G400V): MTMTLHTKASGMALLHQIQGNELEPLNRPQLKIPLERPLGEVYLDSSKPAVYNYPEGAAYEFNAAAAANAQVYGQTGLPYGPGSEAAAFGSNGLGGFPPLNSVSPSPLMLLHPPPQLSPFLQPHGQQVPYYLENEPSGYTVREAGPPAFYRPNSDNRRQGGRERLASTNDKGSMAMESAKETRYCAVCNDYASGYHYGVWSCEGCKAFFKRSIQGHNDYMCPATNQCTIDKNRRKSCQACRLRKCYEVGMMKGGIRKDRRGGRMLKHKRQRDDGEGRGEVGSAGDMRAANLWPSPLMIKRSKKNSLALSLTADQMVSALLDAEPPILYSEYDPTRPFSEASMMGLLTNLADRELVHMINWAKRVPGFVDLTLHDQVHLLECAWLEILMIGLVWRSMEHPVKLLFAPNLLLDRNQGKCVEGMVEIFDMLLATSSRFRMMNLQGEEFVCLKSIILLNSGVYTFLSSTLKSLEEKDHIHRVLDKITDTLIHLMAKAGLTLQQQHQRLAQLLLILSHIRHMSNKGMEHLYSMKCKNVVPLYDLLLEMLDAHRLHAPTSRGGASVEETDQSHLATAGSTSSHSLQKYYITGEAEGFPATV
Protocol: HepG2 human hepatoma cells were maintained in a humidified 5% CO2 incubator at 37° C. in Dulbecco's Modified Eagle's Medium (DMEM; Sigma; St. Louis, Mo.) supplemented with 10 % charcoal-dextran-stripped fetal bovine serum (CD-FBS; Atlanta Biologicals, Inc; Atlanta, Ga.), 50,000 U/l of penicillin, and 50 mg/liter streptomycin (Life Technologies, Inc.). MCF-7 cells were routinely maintained in DMEM/Nutrient Mixture F-12 (DMEM/F12) supplemented with 10% heat-inactived FBS, 50,000 U/l of penicillin, and 50 mg/l streptomycin. CHO-S cells were maintained in DMEM/F12 supplemented with 10% heat-inactivated FBS (CD-FBS when ERs were being expressed) or 10% CD-new born calf serum (CD-NBCS, when reporter activity by different ligands were measured), 29.2 mg/l L-glutamine (Sigma), and 50,000 U/l of penicillin and 50 mg/l streptomycin.
Transient transfections in HepG2 cells was accomplished using calcium phosphate co-precipitation (Ausubel et al., 1987). Briefly, cells were plated in 12-well microplates at a density of 1×10^5 cells/well. The next day, the medium was replaced, and 2–6 hours later, precipitated calcium phosphate:DNA co-crystals were added. After 12–16 hours, the cells were shocked for 3 minutes with 20% glycerol in Tris-buffered saline, pH 7.4. Fresh medium and (if any) hormones were added. For MCF-7 and 231 cells, transient transfection was carried out using the Tfx™-20 reagent (Promega; Madison, Wis.) according to the manufacturer's direction with minor changes. Briefly, 1×10^5 cells were plated in each well of 12-well microplates one day before transfection. A 1:3 ratio of DNA to lipid was used. The DMEM/F12 medium without serum was used as carrier for the DNA-lipid mixture. After 1 hour incubation with the DNA-lipid-DMEM/F12 at 37° C., the cells were transferred to fresh DMEM/F12 supplemented with 10% CD-FBS, 50,000 U/I of penicillin, 50 mg/l streptomycin and hormones. Transfection on CHO—S cells was described as above for the preparation of ERs extraction except the medium contained 10% CD-NBCS. The cells subjected to either transfection method were harvested 48 hours post-transfection. Reporter assays were performed by lysing the cells in situ with 250 μl of passive lysis buffer (Promega). Activity was determined using the dual luciferase assay protocol according to the manufacturer's directions (Promega) on a Monolight 2010 luminometer (Analytical Luminescence, San Diego, Calif.)
Transient transfections of HepG2 cells were carried out and luciferase activity determined.

[3] = test system: ATL2/pS2 ERE-LUC reporter in HepG2 cells; assay: MOX-dependent transactivation by wild-type and mutant ERs, transient transfection, luciferase reporter; assay type: cell-based, human; details: 10 nM MOX
[4] = test system: putative ERE in the Bcl2 gene; assay: EMSA, ER binding to putative ERE in the Bcl2 gene; details: summary statement
Protocol: as §2
It therefore seemed possible that binding of wild-type ER to the pS2 ERE is based on strong binding of one monomer of the ER dimer to the cERE half site (aGGTCA; SEQ ID NO: 65) and weak non-specific interaction of the other ER monomer with the sequence at the other half site. To test this possibility, binding of wild-type and the ER mutants to a putative ERE in the Bcl2 gene was examined. Like pS2, Bcl2 contains a cERE half site, but also contains a second, different half site that deviates from the consensus sequence by one nucleotide.

[5] = test system: pS2 PAL probe; assay: EMSA (gel mobility shift), ER binding to pS2 PAL probe
Protocol: as §1
(§3) Gel mobility shift assays were performed essentially as described [Zhang, 1999 #38]. […] Free probe and protein-DNA complexes were quantitated using a phosphor imager and ImageQuant 5.0 (Molecular Dynamics, Inc., Sunnyvale, Calif.). […]
(§4) FIG. 1 (Legend) A. Panel (i), Western blots of normalized whole cell extracts of wild type hERα and mutants from transfected CHO-S cells. […] The data were calculated by PhosphorImager analysis. […] D (iii) contains a graph of the percentage of the labeled pS2 PAL probe shifted calculated by PhosphorImager analysis of the data in D(i) and D(ii).

[6] = test system: ATL2/PAL-LUC reporter in HepG2 cells; assay: MOX-dependent transactivation by wild-type and mutant ERs, transient transfection, luciferase reporter; assay type: cell-based, human; details: 10 nM MOX
[7] = test system: pS2 ERE probe; assay: EMSA (gel mobility shift), ER binding to pS2 ERE probe
Protocol: as §1, with “Whole cell extracts were prepared as described (Zhang et al., 1996) with a modified extraction buffer (50 m-M Tris-HCl, pH 7.5, 1.5 mM EDTA, 10 mM Na2MoO4, 0.5 M NaCl, 10% glycerol, 0.5 mM β-mercaptoethanol, 50 μg/ml leupeptin, 1 μg/ml pepstatin and 5 μg/ml aprotinin).” left out
as §3
To compare binding of wild type hERα and the ER mutants to the EREs, protein titrations were performed. […] The ER:ERE complexes were then analyzed by EMSA. […]
as §4

[8] = test system: ER3M-VP16 fusion proteins (N-79, N-129, C-79, C-129); assay: ATL8/PAL-LUC transactivation with CMV-driven ER3M-VP16 fusion proteins in HepG2 cells; assay type: cell-based, human; details: 10 nM ICI 182,780, no OHT
Description: These fragments were digested with KpnI and BamHI and then purified from agarose gels. […] To create C-129, this ER fragment was digested with XbaI and KpnI and then cloned together with the DNA fragment containing 129 amino acids of VP16 into 5.9 kb vector generated by digestion of CMV-hER with XbaI and BamHI. The same strategy was adopted to create C-79 using the DNA fragment containing 79 amino acids of VP16. Therefore, the expression of these chimeras is driven by the same CMV promoter as that of ER-3M. […] The amplified PCR product was digested with NcoI and NotI. […] This fragment and the NcoI/NotI PCR fragment were then inserted together into the 4.3 kb vector, pGL3-ATL8/PAL-LUC, which was created by digesting ATL8/PAL-LUC completely with NcoI and partially with XbaI so that the luciferase gene was replaced by N-79.

ER7.2: ERα DNA binding domain mutant, SEQ ID NO:18 (EGCKAFFKRSIQRHPRY; Mutant DBD of ER)
binding to cERE and pS2 ERE DNA probes [1]: little or no binding

ER50.1: ERα DNA binding domain mutant, SEQ ID NO:22 (WSCKGFFKRSKQGHNDY; Mutant DBD of ER)
binding to cERE and pS2 ERE DNA probes [1]: little or no binding

C#C[C@]1(O)CC[C@H]2[C@@H]3CCc4cc(O)ccc4[C@H]3[C@@H](OC)C[C@@]21C [MOX, moxestrol]
transactivation level on two copies of pS2 PAL ([2]; ATL2/PAL-LUC, 10 nM ligand): undetectable | MOX-dependent increase in luciferase activity ([2]; 0.75 ng expression plasmid): 32 fold | MOX-dependent increase in luciferase activity ([2]; 2.5 ng expression plasmid): 41 fold

ER57.1: ERα DNA binding domain mutant, SEQ ID NO:24 (WSCKGFFKRSIKGVPTY; Mutant DBD of ER)
binding to cERE and pS2 ERE DNA probes [1]: little or no binding

ER2.1: ERα DNA binding domain mutant, SEQ ID NO:16 (WSCKAFFKRSIAGGNDY; Mutant DBD of ER)
binding to cERE and pS2 ERE DNA probes [1]: little or no binding

ER3M: ERα DNA binding domain mutant, residues 203–219 as SEQ ID NO:4 (WGCKAFFKRSIAGGNDY; Mutant DBD of ER)
activation of transcription from native pS2 ERE compared with wild-type ER [3]: more effectively than wild-type ER | binding to, or transcription from, the Bcl2 and TGF α1 EREs [4]: no detectable binding to, or transcription from

ER4: ERα DNA binding domain mutant, SEQ ID NO:14 (WGCKAFFKRSIARGNDY; Mutant DBD of ER)
activation of transcription from native pS2 ERE compared with wild-type ER [3]: more effectively than wild-type ER

ER2: ERα DNA binding domain mutant, SEQ ID NO:12 (WGCKAFFKRSIARHNDY; Mutant DBD of ER)
activation of transcription from native pS2 ERE compared with wild-type ER [3]: less effective

ER4.3: ERα DNA binding domain mutant, SEQ ID NO:8 (WGCKAFFKRSIVRPTDY; Mutant DBD of ER)
activation of transcription from native pS2 ERE compared with wild-type ER [3]: more effectively than wild-type ER | binding to, or transcription from, the Bcl2 and TGF α1 EREs [4]: no detectable binding to, or transcription from

ER3.1: ERα DNA binding domain mutant, SEQ ID NO:6 (WGCKAFFKRSINRHNSY; Mutant DBD of ER)
activation of transcription from native pS2 ERE compared with wild-type ER [3]: less effective

ER15.3: ERα DNA binding domain mutant, SEQ ID NO:20 (ESCKAFFKRSIGGHNYY; Mutant DBD of ER)
binding to cERE and pS2 ERE DNA probes [1]: little or no binding

ER6.2: ERα DNA binding domain mutant, SEQ ID NO:10 (EGCKAFFKRSIARRLDY; Mutant DBD of ER)
binding to pS2 PAL [5]: negligible binding | activation of transcription from native pS2 ERE compared with wild-type ER [3]: less effective | ability to activate transcription of the pS2 PAL reporter [6]: little or no ability to activate transcription | change in binding to pS2 ERE probe compared with cERE [7]: dramatic decrease in binding

C[C@]12CC[C@@H]3c4ccc(O)cc4C[C@@H](CCCCCCCCC[S+]([O-])CCCC(F)(F)C(F)(F)F)[C@H]3[C@@H]1CC[C@@H]2O (some centres unmarked) [ICI 182,780]
effect on basal transactivation by the fusion proteins [8]: decreased

Source: patent US7153685B2 (The Board of Trustees of the University of Illinois, priority 2002, dated 2006)
